16 compounds from patent publication US8785457B2 (Cellzome Limited, priority 2009, dated 2014) can be followed below.

Format in all cases: binding
The target in assay [1] is T1, PI3K delta (PI3 Kd) (Homo sapiens, UniProt O00329).
T1 construct: endogenous in cells; host or cells: Jurkat, clone E6-1 (ATCC TIB-152) cell lysate
Nature of the assay: kinobeads assay, PI3K delta. The conditions noted are these: kinobeads assay, read-out: Inhibition values (IC50) PI3Kd. An outline of the steps: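 Competitive binding in Jurkat cell lysate (5 mg/mL protein) against beads carrying an immobilized phenylmorpholin-chromen ligand, in DP buffer pH 7.4 with NP40, DTT and NaF. Bead-bound kinases were eluted and quantified by antibody dot blot with infrared detection, and IC50 was taken from dose-response curves of a 1:3 dilution series.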

Assay [2] has as its target T2, PI3Kalpha (PI3Ka) (Homo sapiens, UniProt P42336).
T2 construct: endogenous in cells; host or cells: cell lysate
Kind of assay: kinobeads assay, PI3Kalpha. The conditions noted are these: kinobeads assay, Table 6; for IC50: read-out: Inhibition values (IC50) PI3Ka. An outline of the steps:
(§1)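 Competitive pull-down in cell lysate: compound (various conc.) + phenylmorpholin-chromen affinity beads, incubate, separate beads, elute. Multiplexed immunodetection of bound kinases; dose-response fit → IC50.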

Assay [3] has as its target T3, PI3 Kgamma (PI3 Kg) (Homo sapiens, UniProt P48736).
T3 construct: endogenous in cells; host or cells: cell lysate
Kind of assay: kinobeads assay, PI3Kgamma. To be noted: kinobeads assay, Table 6; read-out: Inhibition values (IC50) PI3Kg. An outline of the steps: as §1

Like-named read-outs stand apart in the source and are kept apart here.

T1 sequence (O00329 whole entry): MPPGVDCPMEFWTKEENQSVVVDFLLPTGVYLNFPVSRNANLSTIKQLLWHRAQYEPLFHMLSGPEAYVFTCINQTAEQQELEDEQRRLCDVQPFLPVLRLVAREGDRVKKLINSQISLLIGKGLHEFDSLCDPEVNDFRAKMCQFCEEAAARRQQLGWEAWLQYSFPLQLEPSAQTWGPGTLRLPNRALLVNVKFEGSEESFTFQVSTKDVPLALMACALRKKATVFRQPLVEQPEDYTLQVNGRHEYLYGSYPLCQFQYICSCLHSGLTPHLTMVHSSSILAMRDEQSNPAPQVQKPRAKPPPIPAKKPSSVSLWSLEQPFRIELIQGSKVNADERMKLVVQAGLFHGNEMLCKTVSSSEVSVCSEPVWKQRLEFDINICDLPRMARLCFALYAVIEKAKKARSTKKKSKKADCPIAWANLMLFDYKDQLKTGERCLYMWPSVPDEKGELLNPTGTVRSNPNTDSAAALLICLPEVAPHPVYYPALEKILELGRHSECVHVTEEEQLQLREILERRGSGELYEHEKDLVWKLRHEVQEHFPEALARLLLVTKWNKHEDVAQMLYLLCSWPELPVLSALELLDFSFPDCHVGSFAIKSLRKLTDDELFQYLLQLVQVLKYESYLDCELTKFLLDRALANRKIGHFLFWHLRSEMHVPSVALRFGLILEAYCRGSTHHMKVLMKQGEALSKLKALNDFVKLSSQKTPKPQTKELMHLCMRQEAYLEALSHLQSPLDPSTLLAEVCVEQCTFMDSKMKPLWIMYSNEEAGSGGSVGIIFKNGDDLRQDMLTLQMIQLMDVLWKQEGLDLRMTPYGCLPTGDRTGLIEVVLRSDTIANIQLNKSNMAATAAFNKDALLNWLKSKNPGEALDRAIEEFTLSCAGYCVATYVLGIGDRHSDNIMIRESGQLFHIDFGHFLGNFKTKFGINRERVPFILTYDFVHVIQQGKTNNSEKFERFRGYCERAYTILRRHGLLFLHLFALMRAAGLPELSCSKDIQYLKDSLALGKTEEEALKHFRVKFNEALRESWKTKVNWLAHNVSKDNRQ
T1 sequence (P27986 whole entry partner): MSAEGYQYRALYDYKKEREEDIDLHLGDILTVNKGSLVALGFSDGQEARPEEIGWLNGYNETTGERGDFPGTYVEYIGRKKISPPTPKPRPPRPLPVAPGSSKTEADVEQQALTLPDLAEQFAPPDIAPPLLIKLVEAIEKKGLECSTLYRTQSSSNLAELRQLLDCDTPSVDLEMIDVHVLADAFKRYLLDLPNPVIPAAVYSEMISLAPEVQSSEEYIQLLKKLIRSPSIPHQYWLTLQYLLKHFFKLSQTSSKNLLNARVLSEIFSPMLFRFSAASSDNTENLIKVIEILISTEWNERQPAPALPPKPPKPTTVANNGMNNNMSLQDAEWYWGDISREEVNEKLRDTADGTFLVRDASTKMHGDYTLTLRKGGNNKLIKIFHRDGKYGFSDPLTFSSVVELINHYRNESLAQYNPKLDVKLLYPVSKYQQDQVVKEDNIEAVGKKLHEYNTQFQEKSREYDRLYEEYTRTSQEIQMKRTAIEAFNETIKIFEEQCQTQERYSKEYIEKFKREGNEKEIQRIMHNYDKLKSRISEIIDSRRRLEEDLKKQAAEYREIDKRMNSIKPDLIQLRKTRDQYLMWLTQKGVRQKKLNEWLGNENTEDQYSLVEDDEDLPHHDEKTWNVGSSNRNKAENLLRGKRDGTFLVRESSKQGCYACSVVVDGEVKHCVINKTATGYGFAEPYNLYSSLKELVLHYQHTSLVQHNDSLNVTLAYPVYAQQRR
T2 sequence (P42336 whole entry): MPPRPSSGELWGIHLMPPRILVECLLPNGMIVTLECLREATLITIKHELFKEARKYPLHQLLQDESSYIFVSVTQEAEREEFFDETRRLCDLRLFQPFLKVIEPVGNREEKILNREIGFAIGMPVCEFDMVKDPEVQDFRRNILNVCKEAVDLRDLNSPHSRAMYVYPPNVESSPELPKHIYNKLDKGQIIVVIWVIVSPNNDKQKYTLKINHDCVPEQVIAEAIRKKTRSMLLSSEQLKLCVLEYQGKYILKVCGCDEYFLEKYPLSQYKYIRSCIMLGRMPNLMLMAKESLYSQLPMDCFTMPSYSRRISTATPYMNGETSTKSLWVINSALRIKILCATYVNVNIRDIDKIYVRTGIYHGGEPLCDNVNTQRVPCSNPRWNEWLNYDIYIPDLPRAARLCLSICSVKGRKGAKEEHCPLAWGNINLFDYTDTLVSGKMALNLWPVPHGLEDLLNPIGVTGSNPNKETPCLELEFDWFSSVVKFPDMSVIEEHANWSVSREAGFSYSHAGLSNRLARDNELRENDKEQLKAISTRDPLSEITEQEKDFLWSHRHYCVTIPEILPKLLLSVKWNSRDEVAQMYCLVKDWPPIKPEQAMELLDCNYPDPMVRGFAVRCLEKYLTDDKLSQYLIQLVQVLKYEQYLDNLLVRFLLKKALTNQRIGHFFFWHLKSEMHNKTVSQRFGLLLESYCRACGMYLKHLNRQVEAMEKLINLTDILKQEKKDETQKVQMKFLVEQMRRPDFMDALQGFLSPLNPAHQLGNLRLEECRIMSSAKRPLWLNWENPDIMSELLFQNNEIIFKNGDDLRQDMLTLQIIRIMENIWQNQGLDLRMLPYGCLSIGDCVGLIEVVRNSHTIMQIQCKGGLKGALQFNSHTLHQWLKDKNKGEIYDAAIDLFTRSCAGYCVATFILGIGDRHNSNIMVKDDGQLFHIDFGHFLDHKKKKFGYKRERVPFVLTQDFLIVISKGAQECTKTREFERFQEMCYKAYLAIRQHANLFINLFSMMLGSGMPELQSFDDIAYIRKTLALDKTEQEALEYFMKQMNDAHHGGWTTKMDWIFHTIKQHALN
T2 sequence (P27986 whole entry partner): as the sequence (P27986 whole entry partner) above
T3 sequence (P48736 whole entry): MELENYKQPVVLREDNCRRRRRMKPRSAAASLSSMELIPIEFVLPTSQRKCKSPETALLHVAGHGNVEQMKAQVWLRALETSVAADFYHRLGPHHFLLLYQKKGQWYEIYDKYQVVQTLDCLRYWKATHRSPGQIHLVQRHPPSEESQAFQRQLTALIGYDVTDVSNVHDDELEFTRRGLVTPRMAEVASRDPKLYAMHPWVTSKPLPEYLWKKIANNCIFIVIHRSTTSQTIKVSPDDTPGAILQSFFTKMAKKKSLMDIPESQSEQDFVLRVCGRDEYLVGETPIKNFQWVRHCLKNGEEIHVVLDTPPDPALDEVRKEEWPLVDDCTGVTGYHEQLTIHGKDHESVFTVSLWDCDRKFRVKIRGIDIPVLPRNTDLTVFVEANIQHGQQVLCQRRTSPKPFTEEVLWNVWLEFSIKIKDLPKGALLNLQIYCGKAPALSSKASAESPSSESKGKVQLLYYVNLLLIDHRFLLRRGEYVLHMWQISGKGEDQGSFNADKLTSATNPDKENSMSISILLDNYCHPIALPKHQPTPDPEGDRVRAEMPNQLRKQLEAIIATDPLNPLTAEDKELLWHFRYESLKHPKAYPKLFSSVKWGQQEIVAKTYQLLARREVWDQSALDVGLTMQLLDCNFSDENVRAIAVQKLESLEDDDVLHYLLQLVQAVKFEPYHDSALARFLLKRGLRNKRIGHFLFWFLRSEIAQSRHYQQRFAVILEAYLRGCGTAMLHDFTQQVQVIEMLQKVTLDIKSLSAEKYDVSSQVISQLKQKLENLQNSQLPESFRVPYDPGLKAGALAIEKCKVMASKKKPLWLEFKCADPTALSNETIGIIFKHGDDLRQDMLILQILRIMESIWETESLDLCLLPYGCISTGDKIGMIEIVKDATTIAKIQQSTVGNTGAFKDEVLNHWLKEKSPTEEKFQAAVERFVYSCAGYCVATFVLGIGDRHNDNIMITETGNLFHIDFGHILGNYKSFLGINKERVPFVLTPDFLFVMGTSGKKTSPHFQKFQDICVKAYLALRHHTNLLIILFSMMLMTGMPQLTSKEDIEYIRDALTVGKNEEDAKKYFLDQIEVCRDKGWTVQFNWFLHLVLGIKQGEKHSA

In the case of `CCNC(=O)Nc1ccc(-c2nc3c(c(N4CCOC[C@@H]4C)n2)CN(C(=O)c2ccc(F)cc2)C3)cc1` [Example 19, (S)-1-ethyl-3-(4-(6-(4-fluorobenzoyl)-4-(3-methylmorpholino)-6,7-dihydro-5H-pyrrolo[3,4-d]pyrimidin-2-yl)phenyl)urea], the IC50 in assay [1] (Table 4), in assay [1] (Table 6) and in assay [3] was more than 10 µM in each case. Besides, the “Inhibition values (IC50) PI3Ka” value in assay [2] is reported as “D (D >10 μM)”.

As for `CCNC(=O)Nc1ccc(-c2nc3c(c(N4CCOC[C@@H]4C)n2)CN(C(=O)C(C)C)C3)cc1` [Example 21, (S)-1-ethyl-3-(4-(6-isobutyryl-4-(3-methylmorpholino)-6,7-dihydro-5H-pyrrolo[3,4-d]pyrimidin-2-yl)phenyl)urea], the IC50 was 1 to 10 µM in assay [1] (Table 4), 1 to 10 µM in assay [1] (Table 6), 1 to 10 µM in assay [2] and more than 10 µM in assay [3].

`CCNC(=O)Nc1ccc(-c2nc3c(c(N4CCOC[C@@H]4C)n2)CN(C(=O)C2CC2)C3)cc1` [Example 23, (S)-1-(4-(6-(cyclopropanecarbonyl)-4-(3-methylmorpholino)-6,7-dihydro-5H-pyrrolo[3,4-d]pyrimidin-2-yl)phenyl)-3-ethylurea]: the 50% inhibitory concentration (IC50) was 1 to 10 µM in assay [1] (Table 4), 1 to 10 µM in assay [1] (Table 6), 1 to 10 µM in assay [2] and more than 10 µM in assay [3].

On to `CCNC(=O)Nc1ccc(-c2nc3c(c(N4CCOC[C@@H]4C)n2)CCN(C(=O)c2ccc(F)cc2)C3)cc1` [Example 24, (S)-1-ethyl-3-(4-(7-(4-fluorobenzoyl)-4-(3-methylmorpholino)-5,6,7,8-tetrahydropyrido[3,4-d]pyrimidin-2-yl)phenyl)urea], for which the IC50 in assay [1] (Table 4), in assay [1] (Table 6) and in assay [3] was more than 10 µM each time. In addition, the “Inhibition values (IC50) PI3Ka” value in assay [2] was “D (D >10 μM)”.

As for `C[C@H]1COCCN1c1nc(-c2ccc(NC(=O)NC3CC3)cc2)nc2c1CN(CC(C)(C)C)C2` [Example 25, (S)-1-cyclopropyl-3-(4-(4-(3-methylmorpholino)-6-neopentyl-6,7-dihydro-5H-pyrrolo[3,4-d]pyrimidin-2-yl)phenyl)urea], the concentration for half-maximal inhibition (IC50) in assay [1] (Table 4), in assay [1] (Table 6) and in assay [3] was more than 10 µM in each case. The “Inhibition values (IC50) PI3Ka” value in assay [2] is “D (D >10 μM)”.

Consider `CCNC(=O)Nc1ccc(-c2nc3c(c(N4CCOC[C@@H]4C)n2)CCN(CC)C3)cc1` [Example 27, (S)-1-ethyl-3-(4-(7-ethyl-4-(3-methylmorpholino)-5,6,7,8-tetrahydropyrido[3,4-d]pyrimidin-2-yl)phenyl)urea], for which the IC50 is more than 10 µM in assay [1] (Table 4), more than 10 µM in assay [1] (Table 6), 1 to 10 µM in assay [2] and 1 to 10 µM in assay [3].

On to `CCNC(=O)Nc1ccc(-c2nc3c(c(N4CCOC[C@@H]4C)n2)CN(CC2CC2)C3)cc1` [Example 28, (S)-1-(4-(6-(cyclopropylmethyl)-4-(3-methylmorpholino)-6,7-dihydro-5H-pyrrolo[3,4-d]pyrimidin-2-yl)phenyl)-3-ethylurea], for which the IC50 in assay [1] (Table 4), in assay [1] (Table 6) and in assay [3] was more than 10 µM throughout. Also, the “Inhibition values (IC50) PI3Ka” value in assay [2] was “D (D >10 μM)”.

With `CCNC(=O)Nc1ccc(-c2nc3c(c(N4CCOC[C@@H]4C)n2)CN(Cc2ccc(F)cc2)C3)cc1` [Example 29, (S)-1-ethyl-3-(4-(6-(4-fluorobenzyl)-4-(3-methylmorpholino)-6,7-dihydro-5H-pyrrolo[3,4-d]pyrimidin-2-yl)phenyl)urea], the IC50 in assay [1] (Table 4), in assay [1] (Table 6) and in assay [3] was more than 10 µM each time. Moreover, the “Inhibition values (IC50) PI3Ka” value in assay [2] is recorded as “D (D >10 μM)”.

In the case of `CCOC(=O)N1Cc2nc(-c3ccc(NC(=O)NC4CC4)cc3)nc(N3CCOC[C@@H]3C)c2C1` [Example 34, (S)-ethyl 2-(4-(3-cyclopropylureido)phenyl)-4-(3-methylmorpholino)-5H-pyrrolo[3,4-d]pyrimidine-6(7H)-carboxylate], the IC50 in assay [1] (Table 4), in assay [1] (Table 6) and in assay [3] was more than 10 µM in each case. The “Inhibition values (IC50) PI3Ka” value in assay [2] is on record as “D (D >10 μM)”.

As for `CCNC(=O)Nc1ccc(-c2nc3c(c(N4CCOC[C@@H]4C)n2)CCN(C)C3)cc1` [Example 35, (S)-1-ethyl-3-(4-(7-methyl-4-(3-methylmorpholino)-5,6,7,8-tetrahydropyrido[3,4-d]pyrimidin-2-yl)phenyl)urea], the IC50 in assay [1] (Table 4), in assay [1] (Table 6) and in assay [3] was more than 10 µM throughout. Further, the “Inhibition values (IC50) PI3Ka” value in assay [2] is “D (D >10 μM)”.

On to `CCNC(=O)Nc1ccc(-c2nc3c(c(N4CCOC[C@@H]4C)n2)CCN(CC2CC2)C3)cc1` [Example 37, (S)-1-(4-(7-(cyclopropylmethyl)-4-(3-methylmorpholino)-5,6,7,8-tetrahydropyrido[3,4-d]pyrimidin-2-yl)phenyl)-3-ethylurea], for which the IC50 in assay [1] (Table 4), in assay [1] (Table 6) and in assay [3] was more than 10 µM each time. Besides, the “Inhibition values (IC50) PI3Ka” value in assay [2] is listed as “D (D >10 μM)”.

Turning to `C[C@H]1COCCN1c1nc(-c2ccc(NC(=O)NC3CC3)cc2)nc2c1CCN(CC1CC1)C2` [Example 40, (S)-1-cyclopropyl-3-(4-(7-(cyclopropylmethyl)-4-(3-methylmorpholino)-5,6,7,8-tetrahydropyrido[3,4-d]pyrimidin-2-yl)phenyl)urea], the IC50 is more than 10 µM in assay [1] (Table 4), more than 10 µM in assay [1] (Table 6), 1 to 10 µM in assay [2] and 1 to 10 µM in assay [3].

With `C[C@H]1COCCN1c1nc(-c2ccc(NC(=O)NC3CC3)cc2)nc2c1CCN(CC(C)(C)C)C2` [Example 41, (S)-1-cyclopropyl-3-(4-(4-(3-methylmorpholino)-7-neopentyl-5,6,7,8-tetrahydropyrido[3,4-d]pyrimidin-2-yl)phenyl)urea], the IC50 in assay [1] (Table 4), in assay [1] (Table 6) and in assay [3] was more than 10 µM throughout. Besides, the “Inhibition values (IC50) PI3Ka” value in assay [2] is listed as “D (D >10 μM)”.

As for `CC(C)CN1CCc2c(nc(-c3ccc(NC(=O)NC4CC4)cc3)nc2N2CCOC[C@@H]2C)C1` [Example 42, (S)-1-cyclopropyl-3-(4-(7-isobutyl-4-(3-methylmorpholino)-5,6,7,8-tetrahydropyrido[3,4-d]pyrimidin-2-yl)phenyl)urea], the half-inhibitory concentration (IC50) in assay [1] (Table 4), in assay [1] (Table 6) and in assay [3] was more than 10 µM in each case. Moreover, the “Inhibition values (IC50) PI3Ka” value in assay [2] was “D (D >10 μM)”.

As to `CCCNC(=O)Nc1ccc(-c2nc3c(c(N4CCOC[C@@H]4C)n2)CN(CC2CC2)C3)cc1` [Example 49, (S)-1-(4-(6-(cyclopropylmethyl)-4-(3-methylmorpholino)-6,7-dihydro-5H-pyrrolo[3,4-d]pyrimidin-2-yl)phenyl)-3-propylurea], the half-maximal inhibitory concentration (IC50) in assay [1] (Table 4) and in assay [1] (Table 6) was more than 10 µM throughout.

`CC(C)NC(=O)Nc1ccc(-c2nc3c(c(N4CCOC[C@@H]4C)n2)CN(CC2CC2)C3)cc1` [Example 50, (S)-1-(4-(6-(cyclopropylmethyl)-4-(3-methylmorpholino)-6,7-dihydro-5H-pyrrolo[3,4-d]pyrimidin-2-yl)phenyl)-3-isopropylurea]: the IC50 in assay [1] (Table 4) and in assay [1] (Table 6) was more than 10 µM each time.
